Experimental data published in US20260216134A1, “CHARGED PI-CONJUGATED MOLECULES FOR THE TREATMENT OF MICROBIAL INFECTIONS” (priority 2023, published 2026).

Test system: S. aureus ATCC 25923
Experiment: Single-step isolation of spontaneous resistant mutants
Type: cell-based, Staphylococcus aureus
From the text: FIGS. 10A-10C show the development of resistance and mutation rate of bacterial strains subjected to repeated exposure to charged pi-conjugated compounds. (FIG. 10A) Stepwise development of resistance in B. cereus CECT131123, E. faecalis ATCC 29212, S. aureus ATCC 25923, and S. pneumoniae ATCC 49619. Bacterial strains were repeatedly exposed to charged pi-conjugated compounds or the conventional antibiotics ciprofloxacin (CIP), linezolid (LNZ) and vancomycin (VAN) for over 30 cycles. The y-axis indicates the MIC fold change, reflecting increased resistance over repeated treatment. (FIG. 10B) Mutation rate, represented as the frequency of rifampin-resistant cells, in S. aureus ATCC 25923 subjected to repeated cycles of treatment with charged pi-conjugated compounds or the conventional antibiotic ciprofloxacin (CIP). (FIG. 10C) Single-step resistance assessment of spontaneous mutants. […]
To estimate the occurrence of spontaneous charged pi-conjugated compound-resistant mutants, S. aureus cells cultured overnight were resuspended in PBS to yield 10^10 cells mL^−1 and then plated on both selective (charged pi-conjugated compound-containing) and non-selective LB agar plates. After incubation at 37° C. for 24-48 hours, colonies were counted, and the frequency of charged pi-conjugated compound-resistant mutants was calculated. […]

C[N+]1=C(/C=C/C2=CC(=C/C=C3/N(CCCCCC(=O)NCCCCCCN)c4ccc5ccccc5c4C3(C)C)/CCC2)C(C)(C)c2c1ccc1ccccc21.Cl.[Cl-] [Cy7.5-amine, Cyanine 7.5-amine]
MIC of spontaneous resistant mutants (mutants propagated on fresh plates, compared with WT strain): MIC indistinguishable from that of the WT
spontaneous mutation rate (plates containing 4×, 8×, 16×MIC, resistant CFU / total CFU): ≤ 10^−6
